Values quoted from earlier work, collected in patent US8685425B2, “Microencapsulation product and process” (priority 2004, dated 2014).

- solubility of DEET in water: around 1%
SMILES: CCN(CC)C(=O)c1cccc(C)c1 [DEET, N,N-diethyl-m-toluamide]
